From paper PMC7168933, “Design, Synthesis and Biochemical Evaluation of Novel Ethanoanthracenes and Related Compounds to Target Burkitt’s Lymphoma” (Pharmaceuticals, 2020)

Key:
[1] = test system: DG-75 Burkitt lymphoma cell line (EBV−, chemoresistant); assay: cells; conditions: Homo sapiens, DG-75, 48 h; for viability at 1 µM: read-out: DG-75 Cell Viability % 1 μM, 1 μM, 48 h; for viability at 10 µM: read-out: DG-75 Cell Viability % 10 μM, 10 μM, 48 h
[2] = test system: MUTU-1 Burkitt lymphoma cell line (EBV+); assay: cells; conditions: Mutu-1, 24 h; for viability at 1 µM: read-out: MUTU-1 Cell Viability % 1 μM, 1 μM, 24 h; for viability at 10 µM: read-out: MUTU-1 Cell Viability % 10 μM, 10 μM, 24 h; for IC50: read-out: IC50 MUTU-I 24 h

| SMILES | melting point [°C] | viability at 1 µM [1] [%] | viability at 10 µM [1] [%] | viability at 1 µM [2] [%] | viability at 10 µM [2] [%] | IC50 [2] [µM] |
| --- | --- | --- | --- | --- | --- | --- |
| C/C(=C\C12c3ccccc3C(Cl)(c3ccccc31)C1C(=O)N(c3ccccc3)C(=O)C12)[N+](=O)[O-] (stereo not drawn) [Compound 17g, (E)-9-Chloro-10-(2-nitroprop-1-en-1-yl)-13-phenyl-9,10-dihydro-9,10-[3,4]epipyrroloanthracene-12,14-dione] | 268 to 271 | 85.3 | 84.3 | 88 | 78.5 |  |
| COc1cc(CN2C(=O)C3C4c5ccccc5C(/C=C(\C)[N+](=O)[O-])(c5ccccc54)C3C2=O)cc(OC)c1OC (stereo not drawn) [Compound 17l, (E)-9-(2-Nitroprop-1-en-1-yl)-13-(3,4,5-trimethoxybenzyl)-9,10-dihydro-9,10-[3,4]epipyrroloanthracene-12,14-dione] | 227 to 229 | 81.9 | 82.1 | 66.8 | 77.3 |  |
| O=C1NC(=O)C2C1C1c3ccccc3C2(O)c2ccccc21 (stereo not drawn) [Compound 21k, 9-Hydroxy-9,10-dihydro-9,10-[3,4]epipyrroloanthracene-12,14-dione] | 253 to 255 | 65.9 | 80.9 | 104 | 100 |  |
| COC(=O)C1C2c3ccccc3C(/C=C/[N+](=O)[O-])(c3ccccc32)C1C(=O)OC (stereo not drawn) [Compound 19e, Dimethyl (E)-9-(2-nitrovinyl)-9,10-dihydro-9,10-ethanoanthracene-11,12-dicarboxylate] | 141 to 143 | 102 | 10.3 | 84.7 | 10.7 |  |
| CC/C(=C\C12c3ccccc3C(Cl)(c3ccccc31)C1C(=O)NC(=O)C12)[N+](=O)[O-] (stereo not drawn) [Compound 13l, (E)-9-Chloro-10-(2-nitrobut-1-en-1-yl)-9,10-dihydro-9,10-[3,4]epipyrroloanthracene-12,14-dione] | 294 to 298 | 90 | 102 | 88.6 | 88.3 |  |
| N#CC(C#N)=CC12c3ccccc3C(c3ccccc31)C1C(=O)OC(=O)C12 (stereo not drawn) [Compound 23d, 2-((12,14-Dioxo-9,10-[3,4]furanoanthracen-9(10H)-yl)methylene)malononitrile] | 196 to 198 | 103 | 95.7 | 99.8 | 82.7 |  |
| CC/C(=C\C12c3ccccc3C(c3ccccc31)C1C(=O)NC(=O)C12)[N+](=O)[O-] (stereo not drawn) [Compound 13i, (E)-9-(2-Nitrobut-1-en-1-yl)-9,10-dihydro-9,10-[3,4]epipyrroloanthracene-12,14-dione] | 296 to 298 | 96.3 | 89.4 | 91.1 | 73 |  |
| COc1cc(N2C(=O)C3C4c5ccccc5C(/C=C/[N+](=O)[O-])(c5ccccc54)C3C2=O)cc(OC)c1OC (stereo not drawn) [Compound 16f, (E)-9-(2-Nitrovinyl)-13-(3,4,5-trimethoxyphenyl)-9,10-dihydro-9,10-[3,4]epipyrroloanthracene-12,14-dione] | 270 to 272 | 25.6 | 0.46 | 1.8 | 1.1 | 0.24 |
| CC/C(=C\C12c3ccccc3C(c3ccccc31)C1C(=O)N(Cc3ccccc3)C(=O)C12)[N+](=O)[O-] (stereo not drawn) [Compound 17k, (E)-13-Benzyl-9-(2-nitrobut-1-en-1-yl)-9,10-dihydro-9,10-[3,4]epipyrroloanthracene-12,14-dione] | 188 to 199 | 74.8 | 96 | 80.4 | 94 |  |
| O=C1C2C3c4ccccc4C(CC[N+](=O)[O-])(c4ccccc43)C2C(=O)N1c1ccccc1 (stereo not drawn) [Compound 14c, 9-(2-Nitroethyl)-13-phenyl-9,10-dihydro-9,10-[3,4]epipyrroloanthracene-12,14-dione] | 248 to 250 | 75.7 | 81.4 | 75.5 | 79.2 |  |
| CC/C(=C\C12c3ccccc3C(c3ccccc31)C1C(=O)N(c3ccc(OC)cc3)C(=O)C12)[N+](=O)[O-] (stereo not drawn) [Compound 17f] | 254 to 256 | 91.4 | 85.1 | 86.5 | 84.5 |  |
| N#C/C=C/C12c3ccccc3C(c3ccccc31)C1C(=O)N(c3ccccc3)C(=O)C12 (stereo not drawn) [Compound 23c, (E)-3-(12,14-Dioxo-13-phenyl-9,10-[3,4]epipyrroloanthracen-9(10H)-yl)acrylonitrile] | 274 to 281 | 94.4 | 89.1 | 90.7 | 74.1 |  |
| O=C1NC(=O)C2C1C1c3ccccc3C2(/C=N/O)c2ccccc21 (stereo not drawn) [Compound 23j, (E)-12,14-Dioxo-9,10-[3,4]epipyrroloanthracene-9(10H)-carbaldehyde oxime] | 272 to 273 | 69.1 | 63.9 | 92.8 | 87.6 |  |
| Nc1ccc(N2C(=O)C3C4c5ccccc5C(/C=C/[N+](=O)[O-])(c5ccccc54)C3C2=O)cc1 (stereo not drawn) [Compound 16n, (E)-13-(4-Aminophenyl)-9-(2-nitrovinyl)-9,10-dihydro-9,10-[3,4]epipyrroloanthracene-12,14-dione] | > 300 | 20.8 | 0.18 | 1.7 | 3.7 | 0.3 |
| O=C1C2C3c4ccccc4C(c4ccccc43)C2C(=O)N1c1ccccc1 (stereo not drawn) [Compound 21c] | 227 to 229 | 85.7 | 71.3 | 93 | 91.2 |  |
| O=C1C2C3c4ccccc4C(/C=N/O)(c4ccccc43)C2C(=O)N1c1ccccc1 (stereo not drawn) [Compound 23k, (E)-12,14-Dioxo-13-phenyl-9,10-[3,4]epipyrroloanthracene-9(10H)-carbaldehyde oxime] | 238 to 242 | 81.7 | 74.1 | 96.9 | 83.9 |  |
| CC/C(=C\C12c3ccccc3C(c3ccccc31)C1C(=O)N(Cc3cc(OC)c(OC)c(OC)c3)C(=O)C12)[N+](=O)[O-] (stereo not drawn) [Compound 17m, (E)-9-(2-Nitrobut-1-en-1-yl)-13-(3,4,5-trimethoxybenzyl)-9,10-dihydro-9,10-[3,4]epipyrroloanthracene-12,14-dione] | 224 to 229 | 82.2 | 77.8 | 82.2 | 66.8 |  |
| O=C1C2C3c4ccccc4C(/C=C/[N+](=O)[O-])(c4ccccc43)C2C(=O)N1CCc1ccccc1 (stereo not drawn) [Compound 17n] | 152 to 156 | 19.9 | 0.07 | 2.8 | 2 | 0.26 |
